# Measured values as given in patent publication US11548888B2, “KRas G12C inhibitors” (Mirati Therapeutics, Inc., priority 2019, dated 2023).
# Target: T1, KRas G12C (Homo sapiens, UniProt P01116, G12C)
# T1 construct: NCI-H358 cells (ATCC CRL-5807) express KRas G12C
# Experiment: Inhibition of KRas G12C-dependent cell growth: Phospho-ERK in NCI-H358 cells
# Format: cell-based
# Settings: NCI-H358 cells expressing KRas G12C; Phospho-ERK (Thr202/Tyr204) normalized to GAPDH; 3 hours compound; 4 parameter fit
# Description: The cellular inhibition of KRAs G12C by exemplary compounds of the present invention was determined by measuring the amount of a downstream marker of KRas activity, phosphorylated ERK (“Phospho-ERK”).
# NCI-H358 cells (ATCC CRL-5807) express KRas G12C and were grown in RPMI medium supplemented with 10% fetal bovine serum, penicillin/streptomycin and 10 mM HEPES. Cells were plated in poly-D-Lysine coated 96-well plates at a concentration of 50,000 cells/well and allowed to attach for 8-12 hours. Diluted compounds were then added at a final concentration of 0.5% DMSO. After 3 hours, the medium was removed, 150 μL of 4% formaldehyde was added and the plates were incubated for 20 minutes. The plates were washed with PBS, and permeabilized using 150 μL of ice cold 100% methanol for 10 minutes. Non-specific antibody binding to the plates was blocked using 100 μL Licor Blocking Buffer (Li-Cor Biotechnology, Lincoln Nebr.) for 1 hour at room temperature. Positive control samples and samples lacking cells were parallel processed with test samples as standards.
# The amount Phospho-ERK was determined using an antibody specific for the phosphorylated form of ERK and compared to the amount of GAPDH. Primary antibodies used for detection were added as follows: Phospho-ERK (Cell Signaling cs9101) diluted 1:500 and GAPDH (Millipore MAB374) diluted 1:5000 in Licor block+0.05% Tween 20. The plates were incubated for 2 hours at room temperature. The plates were washed with PBS+0.05% Tween 20.
# Secondary antibodies used to visualize primary antibodies were added as follows: Anti-rabbit-680 diluted 1:1000 and Anti-mouse-800 diluted 1:1000 in Licor Block+0.05% Tween 20 and incubated for 1 hour at room temperature. The plates were washed with PBS+0.05% Tween 20. A 100 μL aliquot of PBS was added to each well and the plates were read on a LICOR AERIUS plate reader.
# The pERK(Thr202/Tyr204) signal was normalized with the GAPDH signal and percent of DMSO control values were calculated. IC50 values were generated using a 4 parameter fit of the dose response curve.
# T1 sequence (P01116 1-188 isoform P01116-2 G12C): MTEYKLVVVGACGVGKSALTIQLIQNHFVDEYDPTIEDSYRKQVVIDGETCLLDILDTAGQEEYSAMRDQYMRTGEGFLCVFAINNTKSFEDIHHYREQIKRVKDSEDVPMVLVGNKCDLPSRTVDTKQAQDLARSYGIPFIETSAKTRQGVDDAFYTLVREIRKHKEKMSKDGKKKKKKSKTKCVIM
row,IC50 [nM],SMILES
1,23,"C=C(F)C(=O)N1CCN(c2nc(OC[C@@H]3C[C@@H](F)CN3C)nc3c(F)c(-c4cncc5cccc(Cl)c45)ncc23)C[C@@H]1CC#N [Example 52, 2-[(2S)-4-[7-(5-chloro-4-isoquinolyl)-8-fluoro-2-[[(2S,4R)-4-fluoro-1-methyl-pyrrolidin-2-yl]methoxy]pyrido[4,3-d]pyrimidin-4-yl]-1-(2-fluoroprop-2-enoyl)piperazin-2-yl]acetonitrile]"
2,17,"CN1C[C@H](F)C[C@H]1COc1nc(N2CCN(C(=O)/C=C/CF)[C@@H](CC#N)C2)c2cnc(-c3cncc4cccc(Cl)c34)c(F)c2n1 [Example 53, 2-[(2S)-4-[7-(5-chloro-4-isoquinolyl)-8-fluoro-2-[[(2S,4R)-4-fluoro-1-methyl-pyrrolidin-2-yl]methoxy]pyrido[4,3-d]pyrimidin-4-yl]-1-[(E)-4-fluorobut-2-enoyl]piperazin-2-yl]acetonitrile]"
3,14,"C=C(F)C(=O)N1CCN(c2nc(OC[C@@H]3CCCN3C)nc3c(F)c(-c4cncc5cccc(Cl)c45)ncc23)C[C@@H]1CC#N [Example 54, 2-((S)-4-(7-(5-chloroisoquinolin-4-yl)-8-fluoro-2-(((S)-1-methylpyrrolidin-2-yl)methoxy)pyrido[4,3-d]pyrimidin-4-yl)-1-(2-fluoroacryloyl)piperazin-2-yl)acetonitrile]"
4,90,"Cc1cccc2cncc(-c3ncc4c(N5CCN(C(=O)/C=C/CF)[C@@H](CC#N)C5)nc(OC[C@@H]5CC(F)(F)CN5C)nc4c3F)c12 [Example 55, 2-((S)-4-(2-(((S)-4,4-difluoro-1-methylpyrrolidin-2-yl)methoxy)-8-fluoro-7-(5-methylisoquinolin-4-yl)pyrido[4,3-d]pyrimidin-4-yl)-1-((E)-4-fluorobut-2-enoyl)piperazin-2-yl)acetonitrile]"
5,28,"C=C(F)C(=O)N1CCN(c2nc(OC[C@@H]3C[C@@H](OC)CN3C)nc3c(F)c(-c4cncc5cccc(Cl)c45)ncc23)C[C@@H]1CC#N [Example 56, 2-[(2S)-4-[7-(5-chloro-4-isoquinolyl)-8-fluoro-2-[[(2S,4R)-4-methoxy-1-methyl-pyrrolidin-2-yl]methoxy]pyrido[4,3-d]pyrimidin-4-yl]-1-(2-fluoroprop-2-enoyl)piperazin-2-yl]acetonitrile]"
6,58,"COC/C=C/C(=O)N1CCN(c2nc(OC[C@@H]3C[C@@H](OC)CN3C)nc3c(F)c(-c4cccc5cccc(C)c45)ncc23)C[C@@H]1CC#N [Example 57, 2-[(2S)-4-[8-fluoro-2-[[(2S,4R)-4-methoxy-1-methyl-pyrrolidin-2-yl]methoxy]-7-(8-methyl-1-naphthyl)pyrido[4,3-d]pyrimidin-4-yl]-1-[(E)-4-methoxybut-2-enoyl]piperazin-2-yl]acetonitrile]"
7,330,"C=C(F)C(=O)N1CCN(c2nc(OC[C@@H]3CCCN3C)nc3c(C#N)c(-c4cccc5cccc(C)c45)ncc23)C[C@@H]1CC#N [Example 58, 4-[(3S)-3-(cyanomethyl)-4-(2-fluoroprop-2-enoyl)piperazin-1-yl]-7-(8-methyl-1-naphthyl)-2-[[(2S)-1-methylpyrrolidin-2-yl]methoxy]pyrido[4,3-d]pyrimidine-8-carbonitrile]"
8,60,"C=C(F)C(=O)N1CCN(c2nc(OCC3CCN3C(C)(C)C)nc3c(F)c(-c4cccc5cccc(Cl)c45)ncc23)C[C@@H]1CC#N (stereo partly drawn) [Example 59, 2-[(2S)-4-[2-[(1-tert-butylazetidin-2-yl)methoxy]-7-(8-chloro-1-naphthyl)-8-fluoro-pyrido[4,3-d]pyrimidin-4-yl]-1-(2-fluoroprop-2-enoyl)piperazin-2-yl]acetonitrile]"

# Second part, the compound before the results:
row,SMILES,IC50 [nM]
1,"C=CC(=O)N1CCN(c2ncnc3c(F)c(-c4cccc5cccc(C)c45)ncc23)C[C@@H]1CC#N [Example 41, 2-[(2S)-4-[8-fluoro-7-(8-methyl-1-naphthyl)pyrido[4,3-d]pyrimidin-4-yl]-1-prop-2-enoyl-piperazin-2-yl]acetonitrile]",216
2,"C=C(F)C(=O)N1CCN(c2nc(OC[C@@H]3C[C@@H](F)CN3C)nc3c(F)c(-c4cccc5cccc(Cl)c45)ncc23)C[C@@H]1CC#N [Example 42, 2-[(2S)-4-[7-(8-chloro-1-naphthyl)-8-fluoro-2-[[(2S,4R)-4-fluoro-1-methyl-pyrrolidin-2-yl]methoxy]pyrido[4,3-d]pyrimidin-4-yl]-1-(2-fluoroprop-2-enoyl)piperazin-2-yl]acetonitrile]",18
3,"CN1C[C@H](F)C[C@H]1COc1nc(N2CCN(C(=O)/C=C/CF)[C@@H](CC#N)C2)c2cnc(-c3cccc4cccc(Cl)c34)c(F)c2n1 [Example 43, 2-[(2S)-4-[7-(8-chloro-1-naphthyl)-8-fluoro-2-[[(2S,4R)-4-fluoro-1-methyl-pyrrolidin-2-yl]methoxy]pyrido[4,3-d]pyrimidin-4-yl]-1-[(E)-4-fluorobut-2-enoyl]piperazin-2-yl]acetonitrile]",4
4,"COC/C=C/C(=O)N1CCN(c2nc(OC[C@@H]3C[C@@H](F)CN3C)nc3c(F)c(-c4cccc5cccc(Cl)c45)ncc23)C[C@@H]1CC#N [Example 44, 2-[(2S)-4-[7-(8-chloro-1-naphthyl)-8-fluoro-2-[[(2S,4R)-4-fluoro-1-methyl-pyrrolidin-2-yl]methoxy]pyrido[4,3-d]pyrimidin-4-yl]-1-[(E)-4-methoxybut-2-enoyl]piperazin-2-yl]acetonitrile]",15
5,"C=C(F)C(=O)N1CCN(c2nc(OC[C@@H]3CC(F)(F)CN3C)nc3c(F)c(-c4cncc5cccc(C)c45)ncc23)C[C@@H]1CC#N [Example 45, 2-((S)-4-(2-(((S)-4,4-difluoro-1-methylpyrrolidin-2-yl)methoxy)-8-fluoro-7-(5-methylisoquinolin-4-yl)pyrido[4,3-d]pyrimidin-4-yl)-1-(2-fluoroacryloyl)piperazin-2-yl)acetonitrile]",205
6,"C=C(F)C(=O)N1CCN(c2nc(OC[C@@H]3CC(F)(F)CN3C)nc3c(F)c(-c4cncc5cccc(Cl)c45)ncc23)C[C@@H]1CC#N [Example 46, 2-((S)-4-(7-(5-chloroisoquinolin-4-yl)-2-(((S)-4,4-difluoro-1-methylpyrrolidin-2-yl)methoxy)-8-fluoropyrido[4,3-d]pyrimidin-4-yl)-1-(2-fluoroacryloyl)piperazin-2-yl)acetonitrile]",94
7,"CN1CC(F)(F)C[C@H]1COc1nc(N2CCN(C(=O)/C=C/CF)[C@@H](CC#N)C2)c2cnc(-c3cncc4cccc(Cl)c34)c(F)c2n1 [Example 47, 2-((S)-4-(7-(5-chloroisoquinolin-4-yl)-2-(((S)-4,4-difluoro-1-methylpyrrolidin-2-yl)methoxy)-8-fluoropyrido[4,3-d]pyrimidin-4-yl)-1-((E)-4-fluorobut-2-enoyl)piperazin-2-yl)acetonitrile]",30
8,"N#CC[C@H]1CN(c2nc(OCCCN3C[C@@H]4C[C@H]3CO4)nc3c(F)c(-c4cncc5cccc(Cl)c45)ncc23)CCN1C(=O)/C=C/CF [Example 48, 2-[(2S)-4-[7-(5-chloro-4-isoquinolyl)-8-fluoro-2-[3-[(1S,4S)-2-oxa-5-azabicyclo[2.2.1]heptan-5-yl]propoxy]pyrido[4,3-d]pyrimidin-4-yl]-1-[(E)-4-fluorobut-2-enoyl]piperazin-2-yl]acetonitrile]",270
9,"COC/C=C/C(=O)N1CCN(c2nc(OC[C@@H]3C[C@@H](F)CN3C)nc3c(F)c(-c4cccc5cccc(C)c45)ncc23)C[C@@H]1CC#N [Example 49, 2-[(2S)-4-[8-fluoro-2-[[(2S,4R)-4-fluoro-1-methyl-pyrrolidin-2-yl]methoxy]-7-(8-methyl-1-naphthyl)pyrido[4,3-d]pyrimidin-4-yl]-1-[(E)-4-methoxybut-2-enoyl]piperazin-2-yl]acetonitrile]",62
10,"C=C(F)C(=O)N1CCN(c2nc(OC[C@@H]3C[C@@H](F)CN3C)nc3c(F)c(-c4cncc5cccc(C)c45)ncc23)C[C@@H]1CC#N [Example 50, 2-[(2S)-4-[8-fluoro-2-[[(2S,4R)-4-fluoro-1-methyl-pyrrolidin-2-yl]methoxy]-7-(5-methyl-4-isoquinolyl)pyrido[4,3-d]pyrimidin-4-yl]-1-(2-fluoroprop-2-enoyl)piperazin-2-yl]acetonitrile]",53
11,"Cc1cccc2cncc(-c3ncc4c(N5CCN(C(=O)/C=C/CF)[C@@H](CC#N)C5)nc(OC[C@@H]5C[C@@H](F)CN5C)nc4c3F)c12 [Example 51, 2-[(2S)-1-[(E)-4-fluorobut-2-enoyl]-4-[8-fluoro-2-[[(2S,4R)-4-fluoro-1-methyl-pyrrolidin-2-yl]methoxy]-7-(5-methyl-4-isoquinolyl)pyrido[4,3-d]pyrimidin-4-yl]piperazin-2-yl]acetonitrile]",19
